Assay results as given in PMC8079033, “Design, synthesis, anticancer evaluation, and molecular modelling studies of novel tolmetin derivatives as potential VEGFR-2 inhibitors and apoptosis inducers” (Journal of Enzyme Inhibition and Medicinal Chemistry, 2021).

Experiments:
Test in all cases: NCI 60-cell line one-dose antiproliferative screen (SRB)
Assay type in all cases: cell-based
HOP-62 = conditions: Homo sapiens, read-out: growth inhibition % (GI%)
Procedure, shortened: (§1)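 A 48 h, 10 µM exposure is scored by SRB protein dye. Percent growth accounts for starting cell density, allowing lethality as well as cytostasis to be detected.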

HOP-92 = conditions: Homo sapiens, read-out: growth inhibition % (GI%)
Procedure, shortened: as §1

SW-620 = conditions: Homo sapiens, read-out: growth inhibition % (GI%)
Procedure, shortened: as §1

SK-MEL-5 = conditions: Homo sapiens, read-out: growth inhibition % (GI%)
Procedure, shortened: as §1

NCI/ADR-RES = conditions: Homo sapiens, read-out: growth inhibition % (GI%)
Procedure, shortened: as §1

ACHN = conditions: Homo sapiens, read-out: growth inhibition % (GI%)
Procedure, shortened: as §1

UO-31 = conditions: Homo sapiens, read-out: growth inhibition % (GI%)
Procedure, shortened: as §1

U251 = conditions: Homo sapiens, U-251, read-out: growth inhibition % (GI%)
Procedure, shortened: as §1

MDA-MB-435 = conditions: Homo sapiens, read-out: growth inhibition % (GI%)
Procedure, shortened: as §1

NCI-H460 = conditions: Homo sapiens, read-out: growth inhibition % (GI%)
Procedure, shortened: as §1

NCI-H522 = conditions: Homo sapiens, read-out: growth inhibition % (GI%)
Procedure, shortened: as §1

K-562 = conditions: Homo sapiens, K562, read-out: growth inhibition % (GI%)
Procedure, shortened: as §1

HCT-116 = conditions: Homo sapiens, read-out: growth inhibition % (GI%)
Procedure, shortened: as §1

RXF 393 = conditions: Homo sapiens, read-out: growth inhibition % (GI%)
Procedure, shortened: as §1

NCI-H322M = conditions: Homo sapiens, read-out: growth inhibition % (GI%)
Procedure, shortened: as §1

NCI-H23 = conditions: Homo sapiens, read-out: growth inhibition % (GI%)
Procedure, shortened: as §1

A498 = conditions: Homo sapiens, read-out: growth inhibition % (GI%)
Procedure, shortened: as §1

A549/ATCC = conditions: Homo sapiens, read-out: growth inhibition % (GI%)
Procedure, shortened: as §1

EKVX = conditions: Homo sapiens, read-out: growth inhibition % (GI%)
Procedure, shortened: as §1

CAKI-1 = conditions: Homo sapiens, read-out: growth inhibition % (GI%)
Procedure, shortened: as §1

NCI-H226 = conditions: Homo sapiens, read-out: growth inhibition % (GI%)
Procedure, shortened: as §1

OVCAR-5 = conditions: Homo sapiens, read-out: growth inhibition % (GI%)
Procedure, shortened: as §1

PC-3 = conditions: Homo sapiens, read-out: growth inhibition % (GI%)
Procedure, shortened: as §1

SN 12 C = conditions: Homo sapiens, SN12C, read-out: growth inhibition % (GI%)
Procedure, shortened: as §1

SNB-75 = conditions: Homo sapiens, read-out: growth inhibition % (GI%)
Procedure, shortened: as §1

MCF7 = conditions: Homo sapiens, read-out: growth inhibition % (GI%)
Procedure, shortened: as §1

SF-295 = conditions: Homo sapiens, read-out: growth inhibition % (GI%)
Procedure, shortened: as §1

OVCAR-8 = conditions: Homo sapiens, read-out: growth inhibition % (GI%)
Procedure, shortened: as §1

SF-539 = conditions: Homo sapiens, read-out: growth inhibition % (GI%)
Procedure, shortened: as §1

MDA-MB-468 = conditions: Homo sapiens, read-out: growth inhibition % (GI%)
Procedure, shortened: as §1

SNB-19 = conditions: Homo sapiens, read-out: growth inhibition % (GI%)
Procedure, shortened: as §1

M14 = conditions: Homo sapiens, read-out: growth inhibition % (GI%)
Procedure, shortened: as §1

786-0 = conditions: Homo sapiens, read-out: growth inhibition % (GI%)
Procedure, shortened: as §1

OVCAR-4 = conditions: Homo sapiens, read-out: growth inhibition % (GI%)
Procedure, shortened: as §1

Row | Structure (SMILES) | inhibition at 10 µM (HOP-62) | inhibition at 10 µM (SW-620) | inhibition at 10 µM (SK-MEL-5) | inhibition at 10 µM (NCI/ADR-RES) | inhibition at 10 µM (ACHN) | inhibition at 10 µM (UO-31) | inhibition at 10 µM (U251) | inhibition at 10 µM (MDA-MB-435) | inhibition at 10 µM (NCI-H522) | inhibition at 10 µM (K-562) | inhibition at 10 µM (HCT-116) | inhibition at 10 µM (RXF 393) | inhibition at 10 µM (NCI-H322M) | inhibition at 10 µM (NCI-H23) | inhibition at 10 µM (A498) | inhibition at 10 µM (A549/ATCC) | inhibition at 10 µM (EKVX) | inhibition at 10 µM (CAKI-1) | inhibition at 10 µM (NCI-H226) | inhibition at 10 µM (OVCAR-5) | other results
1 | Cc1ccc(C(=O)c2ccc(CC(=O)NNC(=O)Nc3ccc(Cl)c(C(F)(F)F)c3)n2C)cc1 [Compound 8c, N-(4-Chloro-3-(trifluoromethyl)phenyl)-2–(2-(1-methyl-5–(4-methylbenzoyl)-1H-pyrrol-2-yl)acetyl)hydrazinecarboxamide] | 20% | 10.6% | 22.3% | < 10% | < 10% | 38.4% | < 10% | 20.7% | 21.1% | < 10% | < 10% | < 10% | 14.4% | < 10% | 18.3% | 21.7% | < 10% | 35.2% | < 10% | 10.9% | inhibition at 10 µM (HOP-92): 13.5%; inhibition at 10 µM (NCI-H460): 16.8%; inhibition at 10 µM (PC-3): 22.4%; inhibition at 10 µM (SN 12 C): 10.5%; inhibition at 10 µM (SNB-75): 35.7%; inhibition at 10 µM (MCF7): 21.7%; inhibition at 10 µM (SF-295): < 10%; inhibition at 10 µM (OVCAR-8): 10.9%; inhibition at 10 µM (SF-539): < 10%; inhibition at 10 µM (MDA-MB-468): 17.5%; inhibition at 10 µM (SNB-19): 25.8%; inhibition at 10 µM (M14): 11.7%
2 | Cc1ccc(C(=O)c2ccc(CC(=O)NN=Cc3cccc(O)c3O)n2C)cc1 [Compound 5b, N′-(2,3-Dihydroxybenzylidene)-2–(1-methyl-5–(4-methylbenzoyl)-1H-pyrrol-2-yl) acetohydrazide] | 50.1% | 65.8% | 65.4% | 80.9% | 86.5% | 85.8% | 74% | 38.9% | 51.2% | 69.6% | 69.2% | 70.3% | 45.6% | 54.6% | < 10% | 41.3% | 41.2% | 62.7% | 31% | 27.4% | inhibition at 10 µM (HOP-92): 43.8%; inhibition at 10 µM (NCI-H460): 91.4%; inhibition at 10 µM (PC-3): 40.8%; inhibition at 10 µM (SN 12 C): 53.2%; inhibition at 10 µM (SNB-75): 74.6%; inhibition at 10 µM (MCF7): 84%; inhibition at 10 µM (786-0): 23.6%; inhibition at 10 µM (SF-295): 16.5%; inhibition at 10 µM (OVCAR-8): 61.4%; inhibition at 10 µM (OVCAR-4): 70.9%; inhibition at 10 µM (SF-539): 66.2%; inhibition at 10 µM (MDA-MB-468): 45.1%; inhibition at 10 µM (SNB-19): 54%; inhibition at 10 µM (M14): 71.5%
3 | Cc1ccc(C(=O)c2ccc(CC(=O)NN=Cc3c[nH]c4ccccc34)n2C)cc1 [Compound 5f, N′-((1H-Indol-3-yl)methylene)-2–(1-methyl-5–(4-methylbenzoyl)-1H-pyrrol-2-yl) acetohydrazide] | < 10% | < 10% | < 10% | < 10% | 34.2% | 32.8% | 10.4% | < 10% | 18.7% | < 10% | < 10% | < 10% | < 10% | < 10% | 15.6% | 15.4% | 17.7% | 17% | < 10% | < 10% | inhibition at 10 µM (HOP-92): < 10%; inhibition at 10 µM (NCI-H460): < 10%; inhibition at 10 µM (PC-3): < 10%; inhibition at 10 µM (SN 12 C): < 10%; inhibition at 10 µM (SNB-75): 25.5%; inhibition at 10 µM (MCF7): 27%; inhibition at 10 µM (786-0): < 10%; inhibition at 10 µM (SF-295): < 10%; inhibition at 10 µM (OVCAR-8): < 10%; inhibition at 10 µM (OVCAR-4): 11.1%; inhibition at 10 µM (SF-539): < 10%; inhibition at 10 µM (MDA-MB-468): 16.8%; inhibition at 10 µM (SNB-19): 12.5%; inhibition at 10 µM (M14): < 10%
4 | Cc1ccc(C(=O)c2ccc(CC(=O)NN=Cc3ccccc3O)n2C)cc1 [Compound 5a, N′-(2-Hydroxybenzylidene)-2–(1-methyl-5–(4-methylbenzoyl)-1H-pyrrol-2-yl)aceto hydrazide] | 24% | 10.4% | 12.6% | 30.6% | 46.8% | 59.3% | 23.8% | 16.8% | 24.9% | 15.8% | < 10% | 10.4% | 21.1% | 17.1% | 18% | 13.9% | 17.3% | 35.5% | < 10% | < 10% | inhibition at 10 µM (HOP-92): < 10%; inhibition at 10 µM (NCI-H460): 23.4%; inhibition at 10 µM (PC-3): 13.2%; inhibition at 10 µM (SN 12 C): 10.2%; inhibition at 10 µM (SNB-75): 40.4%; inhibition at 10 µM (MCF7): 18.5%; inhibition at 10 µM (786-0): < 10%; inhibition at 10 µM (SF-295): < 10%; inhibition at 10 µM (OVCAR-8): 21%; inhibition at 10 µM (OVCAR-4): 39.8%; inhibition at 10 µM (SF-539): 10.9%; inhibition at 10 µM (MDA-MB-468): 18.9%; inhibition at 10 µM (SNB-19): 20.7%; inhibition at 10 µM (M14): 17.1%
5 | Cc1ccc(C(=O)c2ccc(CC(=O)NN=Cc3ccc(O)cc3O)n2C)cc1 [Compound 5c, N′-(2,4-Dihydroxybenzylidene)-2–(1-methyl-5–(4-methylbenzoyl)-1H-pyrrol-2-yl) acetohydrazide] | 59.4% | 57.8% | 60.7% | 65.4% | 83.5% | 80.2% | 62.4% | 36.9% | 44.5% | 55.1% | 65.1% | 50.3% | 62% | 57.6% | 12.6% | 53.4% | 65.8% | 53.4% | 34.3% | 36.6% | inhibition at 10 µM (HOP-92): 16.9%; inhibition at 10 µM (NCI-H460): 78.9%; inhibition at 10 µM (PC-3): 38.9%; inhibition at 10 µM (SN 12 C): 44.3%; inhibition at 10 µM (SNB-75): 68.9%; inhibition at 10 µM (MCF7): 60.8%; inhibition at 10 µM (786-0): 56.6%; inhibition at 10 µM (SF-295): 52.8%; inhibition at 10 µM (OVCAR-8): 51.6%; inhibition at 10 µM (OVCAR-4): 79.3%; inhibition at 10 µM (SF-539): 55.6%; inhibition at 10 µM (MDA-MB-468): 53.2%; inhibition at 10 µM (SNB-19): 50.6%; inhibition at 10 µM (M14): 71.2%
6 | Cc1ccc(C(=O)c2ccc(CC(=O)NN3C(=O)C=CC3=O)n2C)cc1 [Compound 7b, N-(2,5-Dioxo-2,5-dihydro-1H-pyrrol-1-yl)-2–(1-methyl-5–(4-methylbenzoyl)-1H-pyrrol-2-yl)acetamide] | 10.4% | < 10% | < 10% | 12.3% | 11.1% | 35.3% | < 10% | < 10% | 15.9% | 16.5% | 14% | 13% | < 10% | 23.9% | 10.7% | 12.8% | 25.7% | 20.3% | 22.1% | < 10% | inhibition at 10 µM (PC-3): 10.7%; inhibition at 10 µM (SN 12 C): 14.8%; inhibition at 10 µM (SNB-75): 16%; inhibition at 10 µM (MCF7): 13.2%; inhibition at 10 µM (786-0): < 10%; inhibition at 10 µM (SF-295): < 10%; inhibition at 10 µM (OVCAR-8): < 10%; inhibition at 10 µM (OVCAR-4): < 10%; inhibition at 10 µM (SF-539): < 10%; inhibition at 10 µM (MDA-MB-468): < 10%; inhibition at 10 µM (SNB-19): 11%; inhibition at 10 µM (M14): < 10%
